From patent US9365522B2, “Pyrazole amide derivative” (AMGEN INC., priority 2015, dated 2016) come the findings set out here.

This test concerns the target T1, human RORγ-LBD (Homo sapiens, UniProt P51449).
T1 construct: made in house; host or cells: E. coli (BL-21)
T1 sequence (P51449 262-518): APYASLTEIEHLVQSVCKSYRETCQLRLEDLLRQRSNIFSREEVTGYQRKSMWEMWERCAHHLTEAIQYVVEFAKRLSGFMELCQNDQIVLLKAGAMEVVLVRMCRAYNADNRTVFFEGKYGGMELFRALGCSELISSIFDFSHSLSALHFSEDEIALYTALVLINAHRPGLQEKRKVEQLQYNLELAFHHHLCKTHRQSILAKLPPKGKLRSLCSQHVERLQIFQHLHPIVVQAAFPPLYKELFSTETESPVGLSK
Description: ROR gamma coactivator peptide recruitment Alphascreen assay (RORγ-LBD binding to GRIP1 coactivator peptide). Conditions: 5 nM human RORγ-LBD, 30 nM 7-β-hydroxycholesterol, 50 nM biotinylated GRIP1 coactivator peptide, overnight incubation at room temperature; read-out: result (pIC50, RORγ coactivator peptide recruitment Alphascreen assay) (converted). The class given is biochemical. The gist of the method:
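Alphascreen proximity read-out after overnight room-temperature incubation, yielding pIC50 from 1-in-2 compound series (2.5% DMSO final). Mixture: 50 nM biotin-GRIP1 peptide, 30 nM 7-β-hydroxycholesterol agonist, 5 nM recombinant 6×His:Flag human RORγ-LBD (aa 262-518), 50 mM HEPES pH 7.4.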
On the technique in general: Bead proximity is the source of the signal in Alpha formats.
In the case of `C[C@]12CC[C@](CN(CC(=O)c3c(Cl)cccc3Cl)C(=O)c3cnn([C@H]4CC[C@@H](C(=O)O)CC4)c3C(F)(F)F)(CC1)C2` [Example 615, cis-4-(4-((2-(2,6-dichlorophenyl)-2-oxoethyl)(((1r,4r)-4-methylbicyclo[2.2.1]hept-1-yl)methyl)carbamoyl)-5-(trifluoromethyl)-1H-pyrazol-1-yl)cyclohexanecarboxylic acid], the IC50 is 49 nM.

In the case of `CC1(C)CC[C@H]1N(CC(=O)c1c(Cl)cncc1Cl)C(=O)c1cnn([C@H]2CC[C@](C)(C(=O)O)CC2)c1C(F)(F)F` [Example 616, trans-4-(4-((2-(3,5-dichloro-4-pyridinyl)-2-oxoethyl)((1R)-2,2-dimethylcyclobutyl)carbamoyl)-5-(trifluoromethyl)-1H-pyrazol-1-yl)-1-methylcyclohexanecarboxylic acid], the IC50 is 33.9 nM.

In the case of `CC1(C)CC[C@@H]1N(CC(=O)c1c(Cl)cncc1Cl)C(=O)c1cnn([C@H]2CC[C@](C)(C(=O)O)CC2)c1C(F)(F)F` [Example 617, trans-4-(4-((2-(3,5-dichloro-4-pyridinyl)-2-oxoethyl)((1S)-2,2-dimethylcyclobutyl)carbamoyl)-5-(trifluoromethyl)-1H-pyrazol-1-yl)-1-methylcyclohexanecarboxylic acid], the IC50 is 117 nM.

As to `C=CCC1(CC=C)C[C@H](Cc2c(Cl)cncc2Cl)N(C(=O)c2cnn([C@H]3CC[C@](C)(C(=O)O)CC3)c2C(F)(F)F)C1` [Example 618, trans-4-(4-(((2R)-2-((3,5-dichloro-4-pyridinyl)methyl)-4,4-di(2-propen-1-yl)-1-pyrrolidinyl)carbonyl)-5-(trifluoromethyl)-1H-pyrazol-1-yl)-1-methylcyclohexanecarboxylic acid], the IC50 is 10.5 nM.

Turning to `CC1(C)CC[C@H]1N(CC(=O)c1c(Cl)cccc1Cl)C(=O)c1cnn([C@H]2CC[C@](C)(C(=O)O)CC2)c1C(F)(F)F` [Example 619], the IC50 was 7.76 nM.

Take `CC1(C)CC[C@@H]1N(CC(=O)c1c(Cl)cccc1Cl)C(=O)c1cnn([C@H]2CC[C@](C)(C(=O)O)CC2)c1C(F)(F)F` [Example 620]: the IC50 was 38.9 nM.

With `O=C(c1cnn([C@H]2CC[C@@H](C(=O)O)CC2)c1C(F)(F)F)N(CCc1c(Cl)cncc1Cl)[C@@H]1CCC12CCC2` [Example 621, cis-4-(4-((2-(3,5-dichloro-4-pyridinyl)ethyl)((1R)-spiro[3.3]hept-1-yl)carbamoyl)-5-(trifluoromethyl)-1H-pyrazol-1-yl)cyclohexanecarboxylic acid], the IC50 was 302 nM.

For the molecule `CC(C)(C#N)CCN(CC(=O)c1c(Cl)cccc1Cl)C(=O)c1cnn([C@H]2CC[C@](C)(C(=O)O)CC2)c1C(F)(F)F` [Example 622, trans-4-(4-((3-cyano-3-methylbutyl)(2-(2,6-dichlorophenyl)-2-oxoethyl)carbamoyl)-5-(trifluoromethyl)-1H-pyrazol-1-yl)-1-methylcyclohexanecarboxylic acid], the IC50 is 229 nM.

In the case of `O=C(CN(C(=O)c1cnn([C@H]2CC[C@@H](C(=O)O)CC2)c1C(F)(F)F)[C@H]1CC12CCCC2)c1c(Cl)cccc1Cl` [Example 624, cis-4-(4-((2-(2,6-dichlorophenyl)-2-oxoethyl)((1S)-spiro[2.4]hept-1-yl)carbamoyl)-5-(trifluoromethyl)-1H-pyrazol-1-yl)cyclohexanecarboxylic acid], the IC50 is 102 nM.

Turning to `C[C@]1(C(=O)O)CC[C@H](n2ncc(C(=O)N(CC(=O)c3c(Cl)cccc3Cl)[C@H]3CCC34CCCC4)c2C(F)(F)F)CC1` [Example 626], the IC50 was 2.82 nM.

As to `CC1(C)C[C@H](CN(CC(=O)c2c(Cl)cccc2Cl)C(=O)c2cnn([C@H]3CC[C@](C)(C(=O)O)CC3)c2C(F)(F)F)O1` [Example 628, trans-4-(4-((2-(2,6-dichlorophenyl)-2-oxoethyl)(((2R)-4,4-dimethyl-2-oxetanyl)methyl)carbamoyl)-5-(trifluoromethyl)-1H-pyrazol-1-yl)-1-methylcyclohexanecarboxylic acid], the IC50 was 26.9 nM.

In the case of `CC1(C)C[C@@H](CN(CC(=O)c2c(Cl)cccc2Cl)C(=O)c2cnn([C@H]3CC[C@](C)(C(=O)O)CC3)c2C(F)(F)F)O1` [Example 629, trans-4-(4-((2-(2,6-dichlorophenyl)-2-oxoethyl)(((2S)-4,4-dimethyl-2-oxetanyl)methyl)carbamoyl)-5-(trifluoromethyl)-1H-pyrazol-1-yl)-1-methylcyclohexanecarboxylic acid], the IC50 is 45.7 nM.

In the case of `Cc1cc(Cl)c(C(=O)CN(CC2(F)CC2)C(=O)c2cnn([C@H]3CC[C@](C)(C(=O)O)CC3)c2C(F)(F)F)c(Cl)c1` [Example 630, trans-4-(4-((2-(2,6-dichloro-4-methylphenyl)-2-oxoethyl)((1-fluorocyclopropyl)methyl)carbamoyl)-5-(trifluoromethyl)-1H-pyrazol-1-yl)-1-methylcyclohexanecarboxylic acid], the IC50 was 3.98 nM.

`Cc1cc(Cl)c(C(=O)CN(CC2(F)CCCC2)C(=O)c2cnn([C@H]3CC[C@@H](C(=O)O)CC3)c2C(F)(F)F)c(Cl)c1` [Example 631, cis-4-(4-((2-(2,6-dichloro-4-methylphenyl)-2-oxoethyl)((1-fluorocyclopentyl)methyl)carbamoyl)-5-(trifluoromethyl)-1H-pyrazol-1-yl)cyclohexanecarboxylic acid]: the IC50 is 10 nM.

With `C[C@]1(C(=O)O)CC[C@H](n2ncc(C(=O)N(CC(=O)c3c(Cl)cccc3Cl)C3CC4(CCC4)C3)c2C(F)(F)F)CC1` [Example 632, trans-4-(4-((2-(2,6-dichlorophenyl)-2-oxoethyl)(spiro[3.3]hept-2-yl)carbamoyl)-5-(trifluoromethyl)-1H-pyrazol-1-yl)-1-methylcyclohexanecarboxylic acid], the IC50 is 3.98 nM.

As to `C[C@]1(C(=O)O)CC[C@H](n2ncc(C(=O)N(CC(=O)c3c(Cl)cncc3Cl)C3CC4(CCC4)C3)c2C(F)(F)F)CC1` [Example 633, trans-4-(4-((2-(3,5-dichloro-4-pyridinyl)-2-oxoethyl)(spiro[3.3]hept-2-yl)carbamoyl)-5-(trifluoromethyl)-1H-pyrazol-1-yl)-1-methylcyclohexanecarboxylic acid], the IC50 is 8.13 nM.

Consider `CC1(C)CC[C@H]1N(CC(=O)c1c(Cl)cncc1Cl)C(=O)c1cnn([C@H]2CC[C@@H](C(=O)O)CC2)c1C(F)(F)F` [Example 634, cis-4-(4-((2-(3,5-dichloro-4-pyridinyl)-2-oxoethyl)((1R)-2,2-dimethylcyclobutyl)carbamoyl)-5-(trifluoromethyl)-1H-pyrazol-1-yl)cyclohexanecarboxylic acid], for which the IC50 was 871 nM.

Turning to `CC1(C)CC[C@@H]1N(CC(=O)c1c(Cl)cncc1Cl)C(=O)c1cnn([C@H]2CC[C@@H](C(=O)O)CC2)c1C(F)(F)F` [Example 635, cis-4-(4-((2-(3,5-dichloro-4-pyridinyl)-2-oxoethyl)((1S)-2,2-dimethylcyclobutyl)carbamoyl)-5-(trifluoromethyl)-1H-pyrazol-1-yl)cyclohexanecarboxylic acid], the IC50 was 324 nM.

Consider `CC1(C)CC[C@H]1N(CC(=O)c1c(Cl)cccc1Cl)C(=O)c1cnn([C@H]2CC[C@@H](C(=O)O)CC2)c1C(F)(F)F` [Example 636, cis-4-(4-((2-(2,6-dichlorophenyl)-2-oxoethyl)((1R)-2,2-dimethylcyclobutyl)carbamoyl)-5-(trifluoromethyl)-1H-pyrazol-1-yl)cyclohexanecarboxylic acid], for which the IC50 is 132 nM.

Consider `CC1(C)CC[C@@H]1N(CC(=O)c1c(Cl)cccc1Cl)C(=O)c1cnn([C@H]2CC[C@@H](C(=O)O)CC2)c1C(F)(F)F` [Example 637, cis-4-(4-((2-(2,6-dichlorophenyl)-2-oxoethyl)((1S)-2,2-dimethylcyclobutyl)carbamoyl)-5-(trifluoromethyl)-1H-pyrazol-1-yl)cyclohexanecarboxylic acid], for which the IC50 is 724 nM.

As to `COC1(CN(CC(=O)c2c(Cl)cncc2Cl)C(=O)c2cnn([C@H]3CC[C@](C)(C(=O)O)CC3)c2C(F)(F)F)CCCC1` [Example 638, trans-4-(4-((2-(3,5-dichloro-4-pyridinyl)-2-oxoethyl)((1-methoxycyclopentyl)methyl)carbamoyl)-5-(trifluoromethyl)-1H-pyrazol-1-yl)-1-methylcyclohexanecarboxylic acid], the IC50 was 15.5 nM.

For `C[C@]1(C(=O)O)CC[C@H](n2ncc(C(=O)N(CC(=O)c3c(Cl)cccc3Cl)[C@@H]3CCC34CCC4)c2C(F)(F)F)CC1` [Example 639, trans-4-(4-((2-(2,6-dichlorophenyl)-2-oxoethyl)((1R)-spiro[3.3]hept-1-yl)carbamoyl)-5-(trifluoromethyl)-1H-pyrazol-1-yl)-1-methylcyclohexanecarboxylic acid], the IC50 is 57.5 nM.

For `O=C(CN(C(=O)c1cnn([C@H]2CC[C@@H](C(=O)O)CC2)c1C(F)(F)F)[C@@H]1CCC12CCC2)c1c(Cl)cccc1Cl` [Example 640, cis-4-(4-((2-(2,6-dichlorophenyl)-2-oxoethyl)((1R)-spiro[3.3]hept-1-yl)carbamoyl)-5-(trifluoromethyl)-1H-pyrazol-1-yl)cyclohexanecarboxylic acid], the IC50 is 776 nM.
